The text below walks through data of PubChem BioAssay AID256 (DTP/NCI, 2004).

Values joined by “and” are separate entries in the source; they are usually repeats but may differ in a detail not shown here. Equal entries are not always repeated. Toxic doses and inconclusive results are not listed.

In the experiment the test system is CD2F1 mice, L1210 leukemia ip, survival T/C. The experiment is described as follows: NCI In Vivo Anticancer Drug Screen. Data for tumor model L1210 Leukemia (intraperitoneal) in CD2F1 (CDF1) mice. The note with it: higher = longer survival. The method, boiled down: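 Each value reflects a quotient of treated over vehicle control outcomes in mice with a transplanted tumor.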

Setting [1] is: endpoint: mean survival time, dose: 100.0 mg/kg/injection, schedule: Q01DX009 (ip), vehicle: saline with Tween-80.
[2] abbreviates: endpoint: mean survival time, dose: 100.0 mg/kg/injection, schedule: Q04DX003 (ip), vehicle: saline with Tween-80.
Setting [3] is: endpoint: mean survival time, dose: 200.0 mg/kg/injection, schedule: Q01DX009 (ip), vehicle: saline with Tween-80.
Setting [4] is: endpoint: mean survival time, dose: 200.0 mg/kg/injection, schedule: Q04DX003 (ip), vehicle: saline with Tween-80.
[5] abbreviates: endpoint: mean survival time, dose: 400.0 mg/kg/injection, schedule: Q01DX009 (ip), vehicle: saline with Tween-80.
Setting [6] is: endpoint: mean survival time, dose: 400.0 mg/kg/injection, schedule: Q04DX003 (ip), vehicle: saline with Tween-80.
Where [7] appears, read: endpoint: mean survival time, dose: 100.0 mg/kg/injection, schedule: Q01DX001 (ip), vehicle: saline with Tween-80.
[8] abbreviates: endpoint: mean survival time, dose: 200.0 mg/kg/injection, schedule: Q01DX001 (ip), vehicle: saline with Tween-80.
[9] abbreviates: endpoint: mean survival time, dose: 400.0 mg/kg/injection, schedule: Q01DX001 (ip), vehicle: saline with Tween-80.
The mark [10] stands for this setting: endpoint: mean survival time, dose: 50.0 mg/kg/injection, schedule: Q01DX009 (ip), vehicle: saline.
Setting [11] is: endpoint: mean survival time, dose: 100.0 mg/kg/injection, schedule: Q01DX009 (ip), vehicle: saline.

Consider `COc1ccc(OC)c(C=NCCN=Cc2cc(OC)ccc2OC)c1`, for which the T/C under setting [1] is 87 % of control; the T/C under setting [2] was 90 % of control; the T/C under setting [3] is 95 % of control; the T/C under setting [4] was 88 % of control; the T/C under setting [5] is 87 % of control; the T/C under setting [6] is 87 % of control.

On to `Cn1c(=O)c2c(ncn2CCCNCC(O)c2ccc(O)c(O)c2)n(C)c1=O` (stereo unspecified), for which the T/C reads like this: (endpoint: mean survival time, dose: 12.5 mg/kg/injection, schedule: Q01DX005 (ip), vehicle: water) 98 % of control; (endpoint: mean survival time, dose: 25.0 mg/kg/injection, schedule: Q01DX005 (ip), vehicle: water) 98 % of control; (endpoint: mean survival time, dose: 50.0 mg/kg/injection, schedule: Q01DX005 (ip), vehicle: water) 94 % of control; (endpoint: mean survival time, dose: 100.0 mg/kg/injection, schedule: Q01DX005 (ip), vehicle: water) 100 % of control.

`C(=NCCN=Cc1ccccc1)c1ccccc1`: the T/C reads like this: under setting [1], 97 % of control; under setting [3], 97 % of control; under setting [5], 96 % of control.

As to `CCCCC1CCC(N)CC1` (stereo unspecified), the T/C (endpoint: mean survival time, dose: 100.0 mg/kg/injection, schedule: Q04DX003 (ip), vehicle: saline) is 96 % of control.

For `COc1ccc(C2(C#N)CCCC2)cc1`, the T/C was 94 % of control (endpoint: mean survival time, dose: 100.0 mg/kg/injection, schedule: Q01DX009 (ip), vehicle: saline sonified); 97 % of control under setting [2]; 102 % of control (endpoint: mean survival time, dose: 200.0 mg/kg/injection, schedule: Q01DX009 (ip), vehicle: saline sonified); 101 % of control under setting [4]; 96 % of control (endpoint: mean survival time, dose: 400.0 mg/kg/injection, schedule: Q01DX009 (ip), vehicle: saline sonified); 95 % of control under setting [6].

With `O=C(/C=C/c1ccccc1)N1CCCCC1`, the T/C was 98 % of control under setting [2], 89 % of control under setting [4] and 94 % of control under setting [6].

Regarding `Cc1ccc(S(=O)(=O)N2C(=O)OC3(CCCCC3)C2C)cc1` (stereo unspecified), the T/C under setting [7] is 100 % of control, the T/C under setting [8] is 95 % of control and the T/C under setting [9] is 92 % of control.

With `COCC(O)Cn1ccnc1[N+](=O)[O-]` (stereo unspecified), the T/C is 102 % of control (endpoint: mean survival time, dose: 12.5 mg/kg/injection, schedule: Q01DX009 (ip), vehicle: suspension in saline); 100 % of control (endpoint: mean survival time, dose: 12.5 mg/kg/injection, schedule: Q01DX009 (ip), vehicle: water); 104 % of control (endpoint: mean survival time, dose: 25.0 mg/kg/injection, schedule: Q01DX009 (ip), vehicle: suspension in saline); 101 % of control (endpoint: mean survival time, dose: 25.0 mg/kg/injection, schedule: Q01DX009 (ip), vehicle: water); 104 % of control (endpoint: mean survival time, dose: 50.0 mg/kg/injection, schedule: Q01DX009 (ip), vehicle: suspension in saline); 103 % of control (endpoint: mean survival time, dose: 50.0 mg/kg/injection, schedule: Q01DX009 (ip), vehicle: water). Moreover, the T/C by setting is: (endpoint: mean survival time, dose: 100.0 mg/kg/injection, schedule: Q01DX009 (ip), vehicle: suspension in saline) 107 % of control; (endpoint: mean survival time, dose: 100.0 mg/kg/injection, schedule: Q01DX009 (ip), vehicle: water) 97 % of control; (endpoint: mean survival time, dose: 200.0 mg/kg/injection, schedule: Q01DX009 (ip), vehicle: suspension in saline) 104 % of control; (endpoint: mean survival time, dose: 200.0 mg/kg/injection, schedule: Q01DX009 (ip), vehicle: water) 103 % of control; (endpoint: mean survival time, dose: 400.0 mg/kg/injection, schedule: Q01DX009 (ip), vehicle: suspension in saline) 96 % of control; (endpoint: mean survival time, dose: 400.0 mg/kg/injection, schedule: Q01DX009 (ip), vehicle: water) 101 % of control.

Take `CC/C(=C(/CC)c1ccc(OP(=O)(Cl)N(CCCl)CCCl)cc1)c1ccc(OP(=O)(Cl)N(CCCl)CCCl)cc1` (stereo unspecified): the T/C is, setting by setting: (endpoint: median survival time, dose: 31.25 mg/kg/injection, schedule: Q01DX001 (ip), vehicle: distilled water + Tween-80) 108 % of control; (endpoint: median survival time, dose: 62.5 mg/kg/injection, schedule: Q01DX001 (ip), vehicle: distilled water + Tween-80) 101 % of control; (endpoint: median survival time, dose: 125.0 mg/kg/injection, schedule: Q01DX001 (ip), vehicle: distilled water + Tween-80) 97 % of control; (endpoint: median survival time, dose: 250.0 mg/kg/injection, schedule: Q01DX001 (ip), vehicle: distilled water + Tween-80) 100 % of control; (endpoint: median survival time, dose: 500.0 mg/kg/injection, schedule: Q01DX001 (ip), vehicle: distilled water + Tween-80) 100 % of control.

In the case of `CCOC(=O)CCC(N)C(=O)OCC` (stereo unspecified), the T/C reads like this: (endpoint: mean survival time, dose: 100.0 mg/kg/injection, schedule: Q01DX001 (ip), vehicle: saline) 95 % of control; (endpoint: mean survival time, dose: 200.0 mg/kg/injection, schedule: Q01DX001 (ip), vehicle: saline) 88 % of control; (endpoint: mean survival time, dose: 400.0 mg/kg/injection, schedule: Q01DX001 (ip), vehicle: saline) 93 % of control.

Consider `CS(=O)(=O)c1cccnn1`, for which the T/C by setting is: (endpoint: mean survival time, dose: 100.0 mg/kg/injection, schedule: Q04DX003 (ip), vehicle: saline sonified) 93 % of control; (endpoint: mean survival time, dose: 200.0 mg/kg/injection, schedule: Q04DX003 (ip), vehicle: saline sonified) 98 % of control; (endpoint: mean survival time, dose: 400.0 mg/kg/injection, schedule: Q04DX003 (ip), vehicle: saline sonified) 96 % of control.

Take `CC(=O)Nc1ccccc1-c1ccccc1`: the T/C is, setting by setting: under setting [1], 96 % of control; under setting [2], 92 % of control; under setting [3], 104 % of control; under setting [4], 95 % of control; under setting [5], 103 % of control; under setting [6], 94 % of control.

With `CC(C)N(CCCC#N)C(C)C`, the T/C is 96 % of control under setting [10], 95 % of control under setting [11], 97 % of control under setting [2] and 89 % of control under setting [4].

With `O=c1[nH]c(=O)n(C2OC3COC2C3O)cc1F` (stereo unspecified), the T/C is, setting by setting: (endpoint: median survival time, dose: 12.5 mg/kg/injection, schedule: Q01DX005 (ip), vehicle: saline with Tween-80) 101 % of control; (endpoint: median survival time, dose: 25.0 mg/kg/injection, schedule: Q01DX005 (ip), vehicle: saline with Tween-80) 106 % of control; (endpoint: median survival time, dose: 50.0 mg/kg/injection, schedule: Q01DX005 (ip), vehicle: saline with Tween-80) 102 % of control; (endpoint: median survival time, dose: 100.0 mg/kg/injection, schedule: Q01DX005 (ip), vehicle: saline with Tween-80) 97 % of control; (endpoint: median survival time, dose: 200.0 mg/kg/injection, schedule: Q01DX005 (ip), vehicle: saline with Tween-80) 96 % of control.

Take `O=C(COc1ccc(Cl)c(Cl)c1)Nc1cccc(S(=O)(=O)F)c1`: the T/C is 95 % of control under setting [7], 95 % of control under setting [8] and 91 % of control under setting [9].

In the case of `C[N+](C)(C)c1ncnc2c1ncn2C1CCCO1` (stereo unspecified), the T/C by setting is: (endpoint: mean survival time, dose: 12.5 mg/kg/injection, schedule: Q01DX009 (ip), vehicle: saline) 93 % of control; (endpoint: mean survival time, dose: 25.0 mg/kg/injection, schedule: Q01DX009 (ip), vehicle: saline) 98 % of control; under setting [10], 112 % of control; under setting [11], 101 % of control.

Regarding `CCOC(=O)CNC(=O)c1ccc(N(CCCl)CCCl)cc1`, the T/C is 95 % of control (endpoint: mean survival time, dose: 100.0 mg/kg/injection, schedule: Q04DX003 (ip), vehicle: Klucel (hydroxypropylcellulose) (HPC)); 96 % of control (endpoint: mean survival time, dose: 200.0 mg/kg/injection, schedule: Q04DX003 (ip), vehicle: Klucel (hydroxypropylcellulose) (HPC)); 104 % of control (endpoint: mean survival time, dose: 400.0 mg/kg/injection, schedule: Q04DX003 (ip), vehicle: Klucel (hydroxypropylcellulose) (HPC)).

As to `Cc1cc(-c2nnc(-c3ccc(O)c(C)c3)nn2)ccc1O`, the T/C under setting [2] is 97 % of control, the T/C under setting [4] is 89 % of control and the T/C under setting [6] is 92 % of control.

With `O=C(OCc1ccccc1)C1CCCN1C(=O)C(CSC(c1ccccc1)(c1ccccc1)c1ccccc1)NC(c1ccccc1)(c1ccccc1)c1ccccc1` (stereo unspecified), the T/C runs as follows: under setting [10], 97 % of control; under setting [11], 97 % of control; (endpoint: mean survival time, dose: 200.0 mg/kg/injection, schedule: Q01DX009 (ip), vehicle: saline) 95 % of control; (endpoint: mean survival time, dose: 400.0 mg/kg/injection, schedule: Q01DX009 (ip), vehicle: saline) 95 % of control.

For the compound `CC([NH-])CC(C)[NH-].[Br][Pt+2][Br]` (stereo unspecified), the T/C (endpoint: mean survival time, dose: 3.12 mg/kg/injection, schedule: Q04DX003 (ip), vehicle: saline with Tween-80) is 120 % of control and 124 % of control; the T/C (endpoint: mean survival time, dose: 12.5 mg/kg/injection, schedule: Q04DX003 (ip), vehicle: saline with Tween-80) is 150 % of control.

For the compound `CCc1c(Br)c(CC)c(CC)c(CC)c1CC`, the T/C runs as follows: under setting [2], 98 % of control; under setting [4], 98 % of control; under setting [6], 97 % of control.
